This is an account of results in patent US5039811A, “Preparation of N-(pyridinyl)-1H-indol-1-amines” (Hoechst-Roussel Pharmaceuticals Inc., priority 1990, dated 1991).

Structures can show the parent of a compound that is named as a salt. Where two headings read alike, the source gives them in different places.

What all share (type): in vivo
The subject of experiment [1] is Tetrabenazine-Induced Ptosis. As to the kind of experiment: Prevention of Tetrabenazine-Induced Ptosis in Mice. The conditions noted are these: Mus musculus, read-out: Ed50 (prevention of tetrabenazine-induced ptosis). Here is the method: The antidepressant activities were evaluated in this invention on the basis of prevention of Tetrabenazine-induced ptosis in mice. The test method and results are described below.
Tetrabenazine (TBZ) induces behavioral depression with concomitant ptosis in mice similar to reserpine. Antidepressant compounds, both monoamineoxidase inhibitors and tricyclics, are known to prevent or antagonize these effects and the degree of antagonism correlates with clinical efficacy. The prevention of TBZ-induced ptosis in mice is used as a preliminary screen for possible antidepressant activity. The method used in this invention is as follows:
Male mice weighing 20 to 30 grams are used in test groups of five subjects. All compounds are dissolved or suspended with a suitable surfactant in distilled water and administered in volumes of 10 ml/kg of body weight. TBZ solution is made from the methanesulfonate salt and the concentration is adjusted to enable administration of 60 mg/kg of base by intraperitoneal (i.p.) injection.
The pretreatment time is measured from the time of dosing to observation. Therefore, when a 30-minute pretreat is utilized, drug and TBZ are given simultaneously. A control group received solvent and TBZ at intervals identical to drug group. For a primary screen, the drug is administered i.p. and a group size of five is utilized. Eight animals/group are used for a dose range.
The total score for each group of five in a primary screen will, therefore, be from 0 to 20 and these scores are used as indications of drug activity.
The vehicle control group score is used as a determinant of the validity of each test. […] The calculation of percent inhibition of ptosis is: [formula]

For experiment [2], the system named is Scopolamine Induced Memory Deficit. As to the kind of experiment: Dark Avoidance Assay (reversal of scopolamine induced memory deficit). The note with it: s.c., mice. Here is the method:
In this assay mice are tested for their ability to remember an unpleasant stimulus for a period of 24 hours. A mouse is placed in a chamber that contains a dark compartment; a strong incandescent light drives it to the dark compartment, where an electric shock is administered through metal plates on the floor. The animal is removed from the testing apparatus and tested again, 24 hours later, for the ability to remember the electric shock.
If scopolamine, an anticholinergic that is known to cause memory impairment, is administered before an animal's initial exposure to the test chamber, the animal re-enters the dark compartment shortly after being placed in the test chamber 24 hours later.

Experiment [3] concerns 2-phenyl-1,4-benzoquinone-induced writhing. The experiment is described as follows: 2-phenyl-1,4-benzoquinone-induced writhing (PQW) test in mice. The note with it: Mus musculus, sc, read-out: ANALGESIC ACTIVITY ED50, POW. The text has this: (§1) Compounds I of the present invention are also useful as analgesic agents due to their ability to alleviate pain in mammals. […] Exptl. Biol. Med., 95, 729 (1957)] and in modified Haffner's analgesia.
(In general: In writhing tests, fewer writhes than in controls are read as antinociception.)

The subject of experiment [4] is sensitivity of mice to pressure stress (artery clip on tail). As to the kind of experiment: Modified Haffner's Analgesia (tail clip pressure stress). The conditions noted are these: Mus musculus, sc, read-out: ANALGESIC ACTIVITY ED50, Modified Haffner's Analgesia.
Text: as §1
The latter assay is used to evaluate analgesic activity by measuring drug-induced changes in the sensitivity of mice to pressure stress by placing an artery clip (21/2 inches long) on their tail. The procedure used is a modification of the test developed by Haffner, Dtsch. Med. Wschr. 55, 731 (1929), and it is described below.
Male mice (Charles River, DC-1), from 18-30 grams are used for the test. An artery clip is applied to the root of the tail of a mouse (approximately 1/2 inch from the body) to induce pain. The animals quickly respond to this noxious stimuli by biting the clip or the location of the clip. This reaction time, the interval between stimulus onset and response, is recorded in 1/10 second increments by a stop watch.
For a time response, the screening dose (25 mg/kg) is administered subcutaneously (10 ml/kg) to the animal receiving food and water ad libitum before testing. Animals receiving the compound orally are fasted 18-24 hours before drug administration. Drug to be tested is prepared with distilled water and if insoluble, one drop of a surfactant is added.
Twenty-eight animals (seven/group) are administered the drug 15, 30, 45 and 60 minutes prior to testing.
The cut-off time (CO) is determined by taking the Xav +3σ of the combined response latencies of the control mice in all time periods where Xav is the average of X and σ is the standard deviation.
Any reaction time, in subsequent drug tests, which is greater than the CO (for the same time period) therefore exceeds 99% of a normal Gaussian distribution and is called "positive response" indicative of analgesic activity. A time response indicates the period of greatest analgesic effect after dosing. The ED50 is determined at the peak time of drug activity. A minimum of three dose groups are used. ED50 's are calculated using computer analysis.

The mark [5] stands for this setting: po, male mice, TBZ 60 mg/kg i.p.
The mark [6] stands for this setting: male mice, at peak time of drug activity.
Setting [7] is: ip, male mice, TBZ 60 mg/kg i.p.

Usually ED50 stands for the midpoint of the dose-response relation. Regarding `CNCCCN1c2ccccc2CCc2ccccc21` [Desipramine, reference compound], the ED50 in experiment [1] (po) was determined as 2.3 mg/kg.

On to `O=C(O)/C=C\C(=O)O.c1ccc2c(c1)ccn2Nc1ccncc1` [Example 1, N-(4-Pyridinyl)-1H-indol-1-amine maleate], for which the “% of Animals With Scopolamine Induced Memory Deficit Reversed” value in experiment [2] (0.31 mg/kg body weight) is recorded as 33%. The ED50 was determined as 3.3 mg/kg in experiment [1] (setting [5]), 0.86 mg/kg in experiment [3] (mice) and 5.7 mg/kg in experiment [4] (setting [6]).

Consider `CN(c1ccncc1)n1ccc2ccccc21.O=C(O)/C=C\C(=O)O` [Example 2, N-Methyl-N-(4-pyridinyl)-1H-indol-1-amine maleate], for which the “% of Animals With Scopolamine Induced Memory Deficit Reversed” value in experiment [2] (0.04 mg/kg body weight) came to 53%. The ED50 in experiment [1] (setting [5]) is 3.3 mg/kg; in experiment [3] (mice), 3.2 mg/kg; in experiment [4] (setting [6]), 16.3 mg/kg.

For the compound `CCN(c1ccncc1)n1ccc2ccccc21.O=C(O)/C=C\C(=O)O` [Example 3, N-Ethyl-N-(4-pyridinyl)-1H-indol-1-amine maleate], in experiment [2] (0.63 mg/kg body weight), the “% of Animals With Scopolamine Induced Memory Deficit Reversed” value was 33%. In addition, the 50% effective dose (ED50) in experiment [1] (setting [5]) was determined as 5.6 mg/kg.

With `CCCN(c1ccncc1)n1ccc2ccccc21.O=C(O)/C=C\C(=O)O` [Example 4, N-Propyl-N-(4-pyridinyl)-1H-indol-1-amine maleate], the “% of Animals With Scopolamine Induced Memory Deficit Reversed” value in experiment [2] (0.08 mg/kg body weight) turned out to be 27%. The 50% effective dose (ED50) in experiment [1] (setting [5]) turned out to be 5.1 mg/kg; in experiment [3] (mice), 5.1 mg/kg; in experiment [4] (setting [6]) it was 31 mg/kg.

Turning to `CCCN(c1ccncc1)n1ccc2cc(OC)ccc21.O=C(O)/C=C\C(=O)O` [Example 5, 5-Methoxy-N-propyl-N-(4-pyridinyl)-1H-indol-1-amine maleate], the median effective dose (ED50) in experiment [1] (setting [5]) worked out at 29.8 mg/kg.

`CN(c1ccncc1)n1cc(C=O)c2ccccc21` [Example 6, N-Methyl-N-(4-pyridinyl)-1H-indol-1-amine-3-carboxaldehyde maleate]: in experiment [1] (setting [5]), the ED50 was determined as 9.7 mg/kg.

Consider `CCN(c1ccncc1)n1cc(C=O)c2ccccc21` [Example 7, N-Ethyl-N-(4-pyridinyl)-1H-indol-1-amine-3-carboxaldehyde maleate], for which the ED50 in experiment [1] (setting [5]) came out at 11.9 mg/kg.

Regarding `C=Cc1cn(N(C)c2ccncc2)c2ccccc12.O=C(O)/C=C\C(=O)O` [Example 10, 3-Ethenyl-N-methyl-N-(4-pyridinyl)-1H-indol-1-amine maleate], the ED50 in experiment [3] (mice) and in experiment [4] (setting [6]) was 1 mg/kg each time.

Regarding `CCc1cn(N(C)c2ccncc2)c2ccccc12.Cl` [Example 11, 3-Ethyl-N-methyl-N-(4-pyridinyl)-1H-indol-1-amine hydrochloride], the results for the ED50 in experiment [3] (mice) and in experiment [4] (setting [6]) were 0.9 mg/kg and 1 mg/kg, respectively.

`CN(c1ccncc1)n1ccc2cc([N+](=O)[O-])ccc21.O=C(O)/C=C\C(=O)O` [Example 18, N-Methyl-5-nitro-N-(4-pyridinyl)-1H-indol-1-amine maleate]: the ED50 in experiment [3] (mice) stood at 1 mg/kg.

In the case of `Cc1cn(Nc2ccncc2)c2ccccc12.O=C(O)C(=O)O` [Example 19, 3-Methyl-N-(4-pyridinyl)-1H-indol-1-amine oxalate], the ED50 in experiment [1] (setting [7]) is 1 mg/kg; in experiment [3] (mice), 0.4 mg/kg; in experiment [4] (setting [6]) it was 0.7 mg/kg.

Turning to `CCCN(c1ccncc1)n1cc(C)c2ccccc21.O=C(O)/C=C\C(=O)O` [Example 20, 3-Methyl-N-propyl-N-(4-pyridinyl)-1H-indol-1-amine maleate], the “% of Animals With Scopolamine Induced Memory Deficit Reversed” value in experiment [2] (0.31 mg/kg body weight) was 27%. Besides, the ED50 came out at 1.8 mg/kg in experiment [1] (setting [7]), 4.1 mg/kg in experiment [3] (mice) and 1.4 mg/kg in experiment [4] (setting [6]).

Consider `CCCN(c1ccncc1F)n1cc(C)c2ccccc21.Cl` [Example 22, N-(3-Fluoro-4-pyridinyl)-N-propyl-3-methyl-1H-indol-1-amine hydrochloride], for which the “% of Animals With Scopolamine Induced Memory Deficit Reversed” value in experiment [2] (0.31 mg/kg body weight) turned out to be 33%.

As to `C=CCN(c1ccncc1)n1ccc2ccccc21.O=C(O)/C=C\C(=O)O` [Example 23, N-(2-Propen-1-yl)-N-(4-pyridinyl)-1H-indol-1-amine maleate], the 50% effective dose (ED50) in experiment [1] (setting [7]) came out at 4.2 mg/kg; in experiment [3] (mice), 1.3 mg/kg; in experiment [4] (setting [6]), 3.8 mg/kg.

Take `CC(C)=CCN1CCC2(C)c3cc(O)ccc3CC1C2C` (stereo not shown) [Pentazocine, reference compound]: the median effective dose (ED50) in experiment [3] was 1.3 mg/kg; in experiment [4], 3.9 mg/kg.

Turning to `CNC(=O)Oc1ccc2c(c1)[C@]1(C)CCN(C)[C@@H]1N2C` [Physostigmine, (3aS-cis)-1,2,3,3a,8,8a-hexahydro-1,3a,8-trimethyl-pyrrolo[2,3-b]indol-5-ol, methyl carbamate, reference compound], the “% of Animals With Scopolamine Induced Memory Deficit Reversed” value in experiment [2] (0.31 mg/kg body weight) amounted to 20%.
